# Paper PMC4274894, “The poplar Phi class glutathione transferase: expression, activity and structure of GSTF1” (Frontiers in Plant Science, 2014)
# Where two headings read alike, the source gives them in different places.
# Assays:
# [1] = molecular target: T1, PttGSTF1 (Populus trichocarpa, UniProt A9PHH6); assay: spectrophotometric GSH-conjugation assay ([…] nm), Michaelis-Menten fit; type: biochemical; conditions: apparent Km; 1 mM GSH; 100 mM sodium phosphate pH 7.5; 25°C; read-out: PNP-butyrate
# T1 construct: initiator Met cleaved, residues Ala2-Ala215; 24192 Da (WT); homodimer; differs from the P. trichocarpa GSTF1 by Val33 (Ile) and Arg86 (Lys)
# [2] = molecular target: T2, PttGSTF1 (Populus trichocarpa, UniProt A9PHH6, S13A, form not given); assay: as above; type: biochemical; conditions: apparent Km; 1 mM GSH; 100 mM sodium phosphate pH 7.5; 25°C; read-out: PNP-butyrate
# T2 construct: initiator Met cleaved, residues Ala2-Ala215; 24192 Da (WT); homodimer; differs from the P. trichocarpa GSTF1 by Val33 (Ile) and Arg86 (Lys)
# [3] = molecular target: T1, PttGSTF1; assay: as above; type: biochemical; conditions: apparent Km; 0.7 mM GSH; 100 mM phosphate pH 6.5; 25°C; read-out: HNE
# [4] = molecular target: Populus tremula × P. tremuloides glutathione transferase Phi 1 (PttGSTF1) (Populus tremula × P. tremuloides); assay: SEC; calibrated Superdex 200 10/300, 30 mM Tris-HCl pH 8.0, 200 mM NaCl, 100 μg of purified protein injected, 0.5 ml/min; standards 6500-700,000 Da
# [5] = molecular target: PttGSTF1 S13C (Populus tremula × P. tremuloides); assay: as above
# [6] = molecular target: PttGSTF1 S13A (Populus tremula × P. tremuloides); assay: as above
# T1 sequence (A9PHH6 entry or part of it): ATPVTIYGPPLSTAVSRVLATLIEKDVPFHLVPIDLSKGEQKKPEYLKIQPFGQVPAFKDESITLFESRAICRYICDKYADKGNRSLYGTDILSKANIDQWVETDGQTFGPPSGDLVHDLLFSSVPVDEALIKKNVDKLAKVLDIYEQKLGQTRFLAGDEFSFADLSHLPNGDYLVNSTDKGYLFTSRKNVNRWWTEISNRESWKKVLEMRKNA
# T2 sequence (A9PHH6 entry or part of it S13A, form open): as the sequence (A9PHH6 entry or part of it) above, with S12A counted along it
molecule,measurement,setting,value
CCCC(=O)Oc1ccc([N+](=O)[O-])cc1 [PNP-butyrate],Km,[1],360 ± 32.2 µM
same,Km,[2],1510 ± 120 µM
"CCCCCC(O)/C=C/C=O (stereo not drawn) [HNE, 4-hydroxy-2-nonenal]",Km,[3],67.1 ± 6.6 µM
Populus tremula × P. tremuloides glutathione transferase Phi 1 (PttGSTF1) (enzyme),stoichiometry N,[4],2
PttGSTF1 S13C (enzyme),stoichiometry N,[5],2
PttGSTF1 S13A (enzyme),stoichiometry N,[6],2
